Key:
GDP-loaded KRAS G12D = GDP-loaded KRAS G12D (Homo sapiens (Human), UniProt P01116, G12D); assay: KRAS G12D (GDP) biochemical assay (TR-FRET probe displacement); type: binding; settings: 2 hours
Summary of the method: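 Compound pre-incubated 30 min with GDP-loaded KRAS G12D in 50 mM Hepes pH 7.4, 150 mM NaCl, 5 mM MgCl2, 0.005% Tween-20, then Eu-streptavidin and TR-FRET probe added. After 2 h at room temperature, TR-FRET ratio read; IC50 is 50% ratio decrease, sigmoidal fit.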

AsPC-1 (KRAS G12D) cells = assay: 3D cell viability assay (spheroids, CellTiter-Glo 3D); type: cell-based; settings: Homo sapiens, ASPC1, 96 h, AsPC-1 cells, 3D spheroids, 4 days
Experimental: Example C. 3D Cell Viability Assay
Compounds were tested in a 384-well format for their ability to inhibit the viability of AsPC-1 (KRAS G12D) cells in 3D assays. On day 0, 1000 cells/well (80 μL volume per well) in DMEM with 10% FBS, and Penicillin-Streptomycin-Glutamine were plated in 384-well Ultra-Low Attachment Spheroid Microplates (Corning, Catalog #3830) on the BioTEK EL406 liquid dispenser with a 5 μL dispensing cassette (BioTek 7170011). The plates were incubated at 37° C., 5% CO2 for 3 days to allow spheroid formation. On day 3, compounds were serially diluted (1:3) in DMSO. The Biomek FX was used to add 400 nL of test molecule per well. The plates were incubated at 37° C., 5% CO2 for 4 days before addition of CellTiter-Glo 3D (Promega, Catalog #9683) reagent and measurement of luminescence signal. EC50 values were defined as the compound concentration that causes a 50% decrease in luminescence signal and were calculated using a sigmoidal dose-response model to generate curve fits.

GP2D (KRAS G12D) cells = assay: 2D cell viability assay (CellTiter-Glo); type: cell-based; settings: GP2d, 96 h, 4 days
Summary of the method: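 GP2D (KRAS G12D) cells, 1000/well in RPMI + 10% FBS, were plated onto compound (1:3 DMSO series) and grown 4 days at 37 °C, 5% CO2 in 2D. CellTiter-Glo luminescence was read; EC50 is the concentration giving 50% signal decrease, from sigmoidal fit.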

Sequence of GDP-loaded KRAS G12D (P01116-2 other isoform, or with tags, fused parts or gaps G12D): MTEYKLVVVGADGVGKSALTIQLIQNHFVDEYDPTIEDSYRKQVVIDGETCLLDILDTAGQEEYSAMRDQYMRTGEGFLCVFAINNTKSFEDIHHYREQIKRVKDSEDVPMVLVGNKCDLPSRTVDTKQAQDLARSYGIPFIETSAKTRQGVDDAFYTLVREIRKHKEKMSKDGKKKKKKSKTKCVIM

What does the source list for `C#Cc1c(F)ccc2cccc(-c3nc4c5c(nc(OC[C@@]67CCCN6[C@H](COC(C)(C(F)(F)F)C(F)(F)F)CC7)nc5c3F)N3C[C@H]5CC[C@H](N5)[C@H]3CCC4)c12` [Example 115, (6aR,7S,10R)-2-(8-ethynyl-7-fluoronaphthalen-1-yl)-1-fluoro-13-(((3S,7aS)-3-(((1,1,1,3,3,3-hexafluoro-2-methylpropan-2-yl)oxy)methyl)tetrahydro-1H-pyrrolizin-7a(5H)-yl)methoxy)-5,6,6a,7,8,9,10,11-octahydro-4H-3,11a,12,14,15-pentaaza-7,10-methanocyclohepta[4,5]cycloocta[1,2,3-de]naphthalene]?
IC50 (GDP-loaded KRAS G12D): 0.1 nM; EC50 (AsPC-1 (KRAS G12D) cells): 100 nM; EC50 (GP2D (KRAS G12D) cells): 11.5 nM

How did the EC50 (AsPC-1 (KRAS G12D) cells) turn out when `C#Cc1c(F)ccc2cc(O)cc(-c3nc4c5c(nc(OCC6(CN7CCC8(CC7)CC8)CC6)nc5c3F)N3C[C@H]5CC[C@H](N5)[C@H]3CC4)c12` [Example 177, 4-((5aR,6S,9R)-12-((1-((6-azaspiro[2.5]octan-6-yl)methyl)cyclopropyl)methoxy)-1-fluoro-4,5,5a,6,7,8,9,10-octahydro-3,10a,11,13,14-pentaaza[6,9]methanonaphtho[1,8-ab]heptalen-2-yl)-5-ethynyl-6-fluoronaphthalen-2-ol] was run?
Its EC50 is 20 nM.

What about the EC50 (GP2D (KRAS G12D) cells) of the same molecule?
The EC50 was 1.5 nM.

`C#Cc1c(F)ccc2cccc(-c3nc4c5c(nc(OC[C@]67CCCN6C[C@H](OC(C(F)(F)F)(C(F)(F)F)C(F)(F)F)C7)nc5c3F)N3C[C@H]5CC[C@H](N5)[C@H]3CC4)c12` [Example 145, (5aR,6S,9R)-2-(8-ethynyl-7-fluoronaphthalen-1-yl)-1-fluoro-12-((cis-2-((1,1,1,3,3,3-hexafluoro-2-(trifluoromethyl)propan-2-yl)oxy)tetrahydro-1H-pyrrolizin-7a(5H)-yl)methoxy)-4,5,5a,6,7,8,9,10-octahydro-3,10a,11,13,14-pentaaza-6,9-methanonaphtho[1,8-ab]heptalene] was tested. Which IC50 (GDP-loaded KRAS G12D) did it give?
The IC50 was 100 nM.

And the EC50 (GP2D (KRAS G12D) cells)?
Its EC50 is 100 nM.

With `Oc1cc(-c2nc3c4c(nc(OCC5(CN6CC[C@H](OC(F)(F)F)C6)CC5)nc4c2F)N2C[C@H]4CC[C@H](N4)[C@H]2CC3)c2c(OC(F)(F)F)c(F)ccc2c1` [Example 103, 6-fluoro-4-((5aR,6S,9R)-1-fluoro-12-((1-(((S)-3-(trifluoromethoxy)pyrrolidin-1-yl)methyl)cyclopropyl)methoxy)-4,5,5a,6,7,8,9,10-octahydro-3,10a,11,13,14-pentaaza-6,9-methanonaphtho[1,8-ab]heptalen-2-yl)-5-(trifluoromethoxy)naphthalen-2-ol] as the molecule, how does the IC50 (GDP-loaded KRAS G12D) read?
The IC50 was 5.3 nM.

And the EC50 (GP2D (KRAS G12D) cells)?
The EC50 was 62.6 nM.

With `C#Cc1c(F)ccc2cc(O)cc(-c3nc4c5c(nc(OC[C@@]67CCCN6C[C@H](F)C7)nc5c3F)N3C[C@H]5CC[C@H](N5)[C@H]3[C@@H](C(F)F)O4)c12` [Example 82, 4-((5S,5aS,6S,9R)-5-(difluoromethyl)-1-fluoro-12-(((2R,7aS)-2-fluorotetrahydro-1H-pyrrolizin-7a(5H)-yl)methoxy)-5a,6,7,8,9,10-hexahydro-5H-4-oxa-3,10a,11,13,14-pentaaza-6,9-methanonaphtho[1,8-ab]heptalen-2-yl)-5-ethynyl-6-fluoronaphthalen-2-ol] as the molecule, how does the IC50 (GDP-loaded KRAS G12D) read?
The IC50 was 11.4 nM.

And the EC50 (GP2D (KRAS G12D) cells)?
The EC50 was 104 nM.

How did the IC50 (GDP-loaded KRAS G12D) turn out when `C#Cc1c(F)ccc2cc(O)cc(-c3nc4c5c(nc(OCC67CCCN6C[C@H](OC(F)(F)F)C7)nc5c3F)N3C[C@H]5CC[C@H](N5)[C@H]3CC4)c12` (stereo partly drawn) [Example 138, 5-ethynyl-6-fluoro-4-((5aR,6S,9R)-1-fluoro-12-((cis-2-(trifluoromethoxy)tetrahydro-1H-pyrrolizin-7a(5H)-yl)methoxy)-4,5,5a,6,7,8,9,10-octahydro-3,10a,11,13,14-pentaaza-6,9-methanonaphtho[1,8-ab]heptalen-2-yl)naphthalen-2-ol] was run?
Its IC50 is 0.3 nM.

What about the EC50 (GP2D (KRAS G12D) cells) of the same molecule?
The EC50 was 17.2 nM.

How did the IC50 (GDP-loaded KRAS G12D) turn out when `Oc1cc(-c2nc3c4c(nc(OC[C@@]56CCCN5C[C@H](F)C6)nc4c2F)N2C[C@H]4CC[C@H](N4)[C@H]2CO3)c2c(F)c(Cl)ccc2c1` [Example 6, 6-chloro-5-fluoro-4-((5aS,6S,9R)-1-fluoro-12-(((2R,7aS)-2-fluorotetrahydro-1H-pyrrolizin-7a(5H)-yl)methoxy)-5a,6,7,8,9,10-hexahydro-5H-4-oxa-3,10a,11,13,14-pentaaza-6,9-methanonaphtho[1,8-ab]heptalen-2-yl)naphthalen-2-ol] was run?
The IC50 was 2 nM.

And the EC50 (GP2D (KRAS G12D) cells)?
Its EC50 is 70 nM.

What does the source list for `C#Cc1c(F)ccc2cccc(-c3nc4c5c(nc(OC[C@@]67CCCN6[C@H](COc6ccnc(C(F)F)n6)CC7)nc5c3F)N3C[C@H]5CC[C@H](N5)[C@H]3CCC4)c12` [Example 208, (6aR,7S,10R)-13-(((3S,7aS)-3-(((2-(difluoromethyl)pyrimidin-4-yl)oxy)methyl)tetrahydro-1H-pyrrolizin-7a(5H)-yl)methoxy)-2-(8-ethynyl-7-fluoronaphthalen-1-yl)-1-fluoro-5,6,6a,7,8,9,10,11-octahydro-4H-3,11a,12,14,15-pentaaza-7,10-methanocyclohepta[4,5]cycloocta[1,2,3-de]naphthalene]?
IC50 (GDP-loaded KRAS G12D): 0.09 nM; EC50 (GP2D (KRAS G12D) cells): 3.3 nM

With `Fc1ccc2cccc(-c3nc4c5c(nc(OCC6(CN7CC[C@H](OC(F)(F)F)C7)CC6)nc5c3F)N3C[C@H]5CC[C@H](N5)[C@H]3CC4)c2c1OC(F)(F)F` [Example 125, (5aR,6S,9R)-1-fluoro-2-(7-fluoro-8-(trifluoromethoxy)naphthalen-1-yl)-12-((1-(((S)-3-(trifluoromethoxy)pyrrolidin-1-yl)methyl)cyclopropyl)methoxy)-4,5,5a,6,7,8,9,10-octahydro-3,10a,11,13,14-pentaaza-6,9-methanonaphtho[1,8-ab]heptalene] as the molecule, how does the IC50 (GDP-loaded KRAS G12D) read?
Its IC50 is 417 nM.

And the EC50 (GP2D (KRAS G12D) cells)?
Its EC50 is 1000 nM.

`C#Cc1c(F)ccc2cccc(-c3c(Cl)c4c5c(nc(OC[C@@]67CCCN6C[C@H](F)C7)nc5c3F)N3C[C@H]5CC[C@H](N5)[C@H]3CC4)c12` [Example 202, (1S,4R,14aR)-12-chloro-11-(8-ethynyl-7-fluoronaphthalen-1-yl)-10-fluoro-8-(((2R,7aS)-2-fluorotetrahydro-1H-pyrrolizin-7a(5H)-yl)methoxy)-1,2,3,4,5,13,14,14a-octahydro-1,4-epiminoazepino[1′,2′:1,7]azepino[2,3,4-de]quinazoline] was tested. Which IC50 (GDP-loaded KRAS G12D) did it give?
Its IC50 is 0.37 nM.

What about the EC50 (GP2D (KRAS G12D) cells) of the same molecule?
The EC50 was 64 nM.

With `C#Cc1c(F)ccc2cccc(-c3nc4c5c(nc(OC[C@@]67CCCN6[C@H](COc6cc(C(F)(F)F)ncn6)CC7)nc5c3F)N3C[C@H]5CC[C@H](N5)[C@H]3CC4)c12` [Example 152, (5aR, 6S, 9R)-2-(8-ethynyl-7-fluoronaphthalen-1-yl)-1-fluoro-12-(((3S,7aS)-3-(((6-(trifluoromethyl)pyrimidin-4-yl)oxy)methyl)tetrahydro-1H-pyrrolizin-7a(5H)-yl)methoxy)-4,5,5a,6,7,8,9,10-octahydro-3,10a,11,13,14-pentaaza-6,9-methanonaphtho[1,8-ab]heptalene] as the molecule, how does the IC50 (GDP-loaded KRAS G12D) read?
The IC50 was 0.1 nM.

And the EC50 (GP2D (KRAS G12D) cells)?
The EC50 was 5.4 nM.

For `Fc1ccc(-c2nc3c4c(nc(OC[C@@]56CCCN5C[C@H](F)C6)nc4c2F)N2C[C@H]4CC[C@H](N4)[C@H]2CO3)c2ccccc12` [Example 72, (5aS,6S,9R)-1-fluoro-2-(4-fluoronaphthalen-1-yl)-12-(((2R,7aS)-2-fluorotetrahydro-1H-pyrrolizin-7a(5H)-yl)methoxy)-5a,6,7,8,9,10-hexahydro-5H-4-oxa-3,10a,11,13,14-pentaaza-6,9-methanonaphtho[1,8-ab]heptalene], which IC50 (GDP-loaded KRAS G12D) is on record?
The IC50 was 510 nM.

And the EC50 (GP2D (KRAS G12D) cells)?
The EC50 was > 1000 nM.

With `Oc1cc(-c2nc3c4c(nc(OC[C@@]56CCCN5C[C@H](F)C6)nc4c2F)N2C[C@H]4CC[C@H](N4)[C@H]2CO3)c2c(F)c(F)c(F)c(F)c2c1` [Example 12, 5,6,7,8-tetrafluoro-4-((5aS,6S,9R)-1-fluoro-12-(((2R,7aS)-2-fluorotetrahydro-1H-pyrrolizin-7a(5H)-yl)methoxy)-5a,6,7,8,9,10-hexahydro-5H-4-oxa-3,10a,11,13,14-pentaaza-6,9-methanonaphtho[1,8-ab]heptalen-2-yl)naphthalen-2-ol] as the molecule, how does the IC50 (GDP-loaded KRAS G12D) read?
Its IC50 is 6 nM.

What about the EC50 (GP2D (KRAS G12D) cells) of the same molecule?
Its EC50 is 130 nM.

Which results are given for `Oc1cc(-c2nc3c4c(nc(OC[C@@]56CCCN5C[C@H](F)C6)nc4c2F)N2C[C@H]4CC[C@H](N4)[C@H]2CO3)c2c(SC(F)(F)F)c(F)ccc2c1` [Example 54, 6-fluoro-4-((5aS,6S,9R)-1-fluoro-12-(((2R,7aS)-2-fluorotetrahydro-1H-pyrrolizin-7a(5H)-yl)methoxy)-5a,6,7,8,9,10-hexahydro-5H-4-oxa-3,10a,11,13,14-pentaaza-6,9-methanonaphtho[1,8-ab]heptalen-2-yl)-5-((trifluoromethyl)thio)naphthalen-2-ol]?
IC50 (GDP-loaded KRAS G12D): 3 nM; EC50 (GP2D (KRAS G12D) cells): 42 nM
